# Experimental data as given in US10398715B2, “Methods for increasing brain functionality using 2-fucosyl-lactose” (priority 2012, dated 2019).
# How the values were obtained:
# [1] = test system: hippocampal CA3-CA1 synapse; experiment: Hippocampal LTP response in early stressed maternally deprived mice (fEPSP recordings); format: in vivo, C57BL/6 mice; details: MS-stressed mice, AIN93G diet supplemented with 2-fucosyllactose (~7 mg/day/mouse) for eight weeks; compared with the control groups, p<0.05; FIG. 1
# Method: In this Example, the effect of 2-fucosyl-lactose on hippocampal LTP response in early stressed maternally deprived mice was analyzed.
# Initially, mice pups were early stressed using a model of maternal separation. Particularly, one day after delivery, C57BL/6 mice pups were sexed and grouped as sham (non-stressed Control group) or maternally separated (MS—stressed group) animals. From day 2 until day 14 after delivery, the MS pups were removed from the dam and kept isolated for a period of 4 hours per day, typically, from 10:00 AM to 2:00 PM, in a thermostatted cup. During the same time period, pups from the sham group were daily handled for a period of five minutes in order to receive the same grade of habituation to a researcher's hands as the MS pups.
# Each dam had litters of 4 males and 2 females. Females were allowed to stay with the mother, while males were maternally deprived in order to avoid stressing the dam by removing all of the pups. […]
# At the nutritional intervention stage, mice were fed experimental diets for a period of eight weeks. […] The recording electrodes were fixed at the site where a reliable monosynaptic field excitatory post-synaptic potential (fEPSP) was recorded. […]
# For evoking LTP, each animal was presented with five 200 Hz, […] trains of pulses at a rate of 1/s. […] After, fEPSPs were recorded again for 30 minutes. […]
# [2] = test system: hippocampal CA3-CA1 synapse; experiment: Input/output curves evoked at the hippocampal CA3-CA1 synapse in alert behaving rats; format: in vivo, Sprague Dawley rats; details: 1 g/kg p.o. in gelatin, 90 and 180 minutes after administration vs before, FIG. 2
# Method: (§1) In this Example, the effect of 2FL on LTP of the hippocampal CA3-CA1 synapse in alert behaving rats was analyzed,
# (§2) A total of four male Sprague Dawley rats, each 2 months old weighing from 150-200 g, were placed in individual cages with food and water ad libitum. Rats were kept on a 12/12 hour light/dark cycle with constant ambient temperature (22±1° C.) and humidity (50±7%). All tests were conducted during the light cycle.
# (§3) The rats were anesthetized with 0.8%-3% isofluorane (available from AstraZeneca, Madrid, Spain) delivered via a home-made mask. […] was administered from a calibrated Fluotec 5 vaporizer (available from Fluotec-Ohmeda, Tewksbury, Mass.) at a flow rate of 1-4 L/min oxygen. Once anesthetized, the rats were implanted with stimulating and recording electrodes in the hippocampus. […] The recording electrodes were fixed at the site where a reliable monosynaptic field excitatory post-synaptic potential (fEPSP) was recorded. […]
# (§4) Control values for input/output curves and paired-pulse facilitation in the four rats were determined. […]
# [3] = test system: hippocampal CA3-CA1 synapse; experiment: Paired-pulse test in alert behaving rats; format: in vivo, Sprague Dawley rats; details: 1 g/kg p.o., before, 90 min and 180 min after administration, FIG. 3
# Method: as §1, §2, §3, §4
# [4] = test system: hippocampal CA3-CA1 synapse; experiment: LTP induction in behaving rats; format: in vivo, Sprague Dawley rats; details: after 15 days of daily administration of 1 g/kg, vs control values, FIG. 4
# Method: as §1, §2, §3
# For evoking LTP, each rat was presented with five 200 Hz, 100 ms trains of pulses at a rate of 1/s. […] After, fEPSPs were recorded again for 30 minutes. […]
# [5] = test system: Acetylcholinesterase (AChE); experiment: Acetylcholinesterase (AChE) levels in zebrafish embryos; format: in vivo; details: zebrafish larvae, 74.73 mg per liter, 24 hours at 26° C.; negative control water; FIG. 5
# Method: In this Example, the effect of 2FL on Acetylcholinesterase (AChE) in zebrafish embryos was analyzed.
# Zebrafish embryos were grown in water for 96 post-fertilization hours, when eclosion occurs. The larvae were then transferred into a 24-well culture dish and incubated for 24 hours at 26° C. in a dilution of 74.73 mg of 2FL per liter. A negative control (water) and a positive control for AChE (100 mg docosahexaenoic acid/liter) were included in the assay.
# After incubation, larvae were homogenized and centrifuged. AChE levels and total protein content were determined in the resultant supernatants. Two separate assays were done in triplicates. Specific AChE activity data were referred to control and analyzed by ANOVA. Bonferroni post hoc tests were used for comparisons.
substance,measurement,setting,value
2-fucosyl-lactose [2FL],potentiation of field excitatory post-synaptic potentials evoked at the hippocampal CA3-CA1 synapse,[1],"larger, longer-lasting potentiation"
same,amplitude of fEPSPs evoked at the CA3-CA1 synapse (input/output curves),[2],significantly larger
same,"paired-pulse facilitation, differences between the three recording sessions",[3],no significant differences
same,fEPSPs of LTP evoked after HFS of the hippocampal CA3-CA1 synapse,[4],significantly larger fEPSPs than control values
same,AChE levels compared to the negative control,[5],significant increase
